In assay [1] the target is T1, human melatonin 1a receptor (Homo sapiens, UniProt P48039).
T1 construct: expressed in transfected cells; host or cells: S. cerevisiae (CY17353 in A11/A12; aga1 mutant CY19890 in A13), plasmid Cp2695 (PGKp-ML1aR)
Nature of the assay: Western blot of DTT-extracted Aga2-HA. It counts as cell-based. As to conditions: increasing concentrations of ligand vs absence. Here is the method: (§1) The cells (TOD600=1.5) were pelleted, washed with ice-cold 0.15 M sodium chloride, resuspended in 50 microliters of 25 mM Tris-HCl, pH 8.5, supplemented with 10 mM dithiothreitol (DTI) and incubated for1 hour at 4° C. This DTT incubation step reduced the disulfide bonds between the Aga1 and Aga2 proteins, thereby releasing Aga2 into the extracellular medium. After centrifugation, 50 microliter aliquots of the supernatants were subjected to Western blot analysis. Immunoreactive bands corresponding to Aga2-HA were visualized using HA.11 antibodies (BAbCo) as primary antibodies, sheep anti-mouse IgG conjugated with horseradish peroxidase (Amarsham Pharmacia Biotech) as secondary antibodies, and peroxidase substrate (e.g., tetramethyl benzidine (Pierce)) for a visual readout.
For orientation: Immunoblotting shows a protein as a band on a membrane.

Assay [2] has as its target T2, human melatonin 1a receptor (ML1aR) (Homo sapiens, UniProt P48039).
T2 construct: expressed in transfected cells; host or cells: S. cerevisiae (CY17353 in A11/A12; aga1 mutant CY19890 in A13), plasmid Cp2695 (PGKp-ML1aR)
The assay can be described thus: ELISA of DTT-extracted cell surface Aga2-HA induction (HA.11 antibody, HRP readout). It counts as cell-based. As to conditions: for HRP activity: yeast cells, Aga2-HA. The protocol: as §1
(§2) Western blot analysis is a qualitative, rather than quantitative methodology. To determine the induction of expression of the Aga2 protein quantitatively, an ELISA strategy was utilized. Cells were cultured, treated, and the Aga2 protein extracted from the cell surface by DTT incubation, as above. Aliquots of these DTT extracts (50 microliters in the case of cells utilizing the Ste2 receptor and 5 microliters in other cases) were diluted to 100 microliters with 100 mM sodium bicarbonate, pH 9.5. Samples were incubated in 96-well polystyrene plates at 4 degrees C overnight. Plates were washed three times with PBS, pH 7.2 supplemented with 0.1% Tween 20 and blocked with the same buffer containing 3% bovine serum albumin at 37° C. for 1 hr. After blocking, the plates were incubated subsequently with 5000-fold diluted HA.11 antibodies (BAbCo) and 5000-fold diluted sheep anti-mouse IgG conjugated with horseradish peroxidase (Amersham Pharmacia Biotech). Each incubation was conducted at room temperature for 1 hr and was followed by three washes with PBS, pH 7.2, 0.1% Tween 20. The peroxidase activities in each well were determined using tetramethyl benzidine as a substrate.
A general note: In an ELISA, binding on a coated surface is turned into a signal by an enzyme label.

The target in another assay is T3, ML1aR (Homo sapiens, UniProt P48039).
T3 construct: expressed in transfected cells; host or cells: S. cerevisiae (CY17353 in A11/A12; aga1 mutant CY19890 in A13), plasmid Cp2695 (PGKp-ML1aR)
T3 sequence (P48039 whole entry): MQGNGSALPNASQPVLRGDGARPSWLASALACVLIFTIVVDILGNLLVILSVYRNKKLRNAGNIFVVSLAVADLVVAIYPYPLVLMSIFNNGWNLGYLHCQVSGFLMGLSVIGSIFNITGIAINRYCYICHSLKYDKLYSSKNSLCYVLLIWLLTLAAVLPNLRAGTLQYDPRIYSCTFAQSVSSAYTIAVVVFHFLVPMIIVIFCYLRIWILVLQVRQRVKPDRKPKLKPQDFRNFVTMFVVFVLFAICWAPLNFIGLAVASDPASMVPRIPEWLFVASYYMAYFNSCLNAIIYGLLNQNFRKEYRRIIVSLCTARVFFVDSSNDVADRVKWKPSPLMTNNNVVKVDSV
Nature of the assay: Scintillation proximity assay of secreted HA-tagged Aga2p (aga1 mutant strain CY19890). It counts as cell-based. As to conditions: 1 μM melatonin. Here is the method: A particular embodiment of these types of cell-free Aga2 assays is the scintillation proximity assay. In this technique, the extracellular medium potentially containing the Aga2 protein is incubated with antibodies specific for Aga2. These antibodies are also biotinylated, and thus the antibody-Aga2 complex can be tethered to the surface of SPA beads coated with streptavidin (and also containing scintillant). Sag1p^21-352 is radiolabeled with, e.g., ^125I or ^3H, and is incubated with the Aga2-loaded beads. Binding of the fusion protein to the immobilized Aga2 protein brings the radiolabel in proximity to the scintillant contained within the beads, resulting in the emission of light. This emission can be readily quantitated using a scintillation counter. The presence of light indicates the presence of the Aga2 protein, and thus that the pheromone response pathway was activated in the yeast cells by the test compound via the G protein coupled receptor.
The following experiment was conducted in order to test the utility of the scintillation proximity assay for the detection of Aga2p induction mediated by heterologous receptors in yeast. […] One hundred microliter aliquots of culture media were placed into a 96-well plate and the following solutions were added to each well: 20 μl of 0.5 M sodium phosphate, pH 6.0, 1.5 M sodium chloride, 1% Tween 20, 10% BSA; 0.25 μg of SPA beads (Amersham) coated with biotinylated HA.11 antibodies (BAbCo) in 25 μl of PBS (20 mM sodium phosphate, pH 7.2, 0.15 M sodium chloride) and 25 μl of PBS containing [1^25,]-Sag1p^21-352 (250,000 cpm). SPA beads were prepared as follows. Fifty milligrams of streptavidin-coated yttrium silicate beads were incubated in 2 ml of PBS containing 1% BSA, 0.1% Tween 20 and 0.5 mg biotinylated HA. 11 antibodies for 4 hr at room temperature. The beads were washed three times with PBS and resuspended in 1 ml of the same buffer. Sag1p^21-352 was iodinated according to standard protocols using lactoperoxidase.
Light emission was quantitated using a scintillation counter after incubation of the plate at room temperature for 1 hr, 2 hr and 6 hr.

In a further assay the target is T4, ML1a receptor (Homo sapiens, UniProt P48039).
T4 construct: expressed in transfected cells; host or cells: S. cerevisiae (CY17353 in A11/A12; aga1 mutant CY19890 in A13), plasmid Cp2695 (PGKp-ML1aR)
T4 sequence (P48039 whole entry): as above
Nature of the assay: ELISA-like assay of endogenous Aga2 protein with Sag1p21-352. It counts as cell-based. To be noted: yeast cells containing the ML1a receptor, peroxidase assay. Here is the method:
(§3) Extraction of the endogenous Aga2 protein was effected with DTT, as before. Aliquots (25 microliters) of extracts were diluted with 75 microliters of 100 mM sodium bicarbonate, pH 9.5 and the resulting samples were incubated in 96-well polystyrene plates at 4° C. overnight.
(§4) After washing the plates three times with PBS, pH 6.5, supplemented with 0.1% Tween 20, samples were blocked with the same buffer containing 3% bovine serum albumin at 37° C. for 1 hour. After blocking, the plates were incubated subsequently with EndoH-treated Sag1p^21-352 solution (0.5 mg/ml), 1000-fold diluted anti-Xpress antibodies (Invitrogen) and 5000-fold diluted sheep anti-mouse IgG conjugated with horseradish peroxidase (Amersham Pharmacia Biotech). Both Sag1p^21-352 and antibodies were dissolved in PBS, pH 6.5 supplemented with 3% BSA. Each incubation was conducted at room temperature for 1 hr and was followed by three washes with PBS, pH 6.5, 0.1% Tween 20. Finally, the peroxidase activities in each well were determined using tetramethyl benzidine as a substrate. If the Aga2 protein were present in the plate, the Sag1p^21-352 should bind to it, the anti-Xpress antibody binds to the Sag1p^21-352 fusion protein, and the sheep anti-mouse IgG antibodies bind specifically to the anti-Xpress antibody.

Assay [3] deals with T5, Ste2p (Saccharomyces cerevisiae, UniProt D6VTK4).
T5 construct: Yeast cells coexpressing either the endogenous yeast receptor Ste2p; endogenous in cells; host or cells: S. cerevisiae MATa cells (strain CY1892 in the Sag1p-based ELISA)
T5 sequence (D6VTK4 1-431): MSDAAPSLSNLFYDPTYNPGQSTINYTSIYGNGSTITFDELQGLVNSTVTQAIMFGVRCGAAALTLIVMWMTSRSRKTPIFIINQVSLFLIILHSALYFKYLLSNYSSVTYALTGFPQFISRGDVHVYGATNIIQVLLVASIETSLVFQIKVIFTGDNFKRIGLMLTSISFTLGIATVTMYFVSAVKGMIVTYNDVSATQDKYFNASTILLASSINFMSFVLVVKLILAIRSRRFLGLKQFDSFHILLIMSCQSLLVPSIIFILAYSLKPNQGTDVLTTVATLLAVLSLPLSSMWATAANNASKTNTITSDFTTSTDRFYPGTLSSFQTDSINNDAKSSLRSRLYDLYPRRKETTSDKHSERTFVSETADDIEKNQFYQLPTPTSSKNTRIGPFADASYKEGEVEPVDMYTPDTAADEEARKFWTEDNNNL
The assay can be described thus: ELISA of DTT-extracted cell surface Aga2-HA induction (HA.11 antibody, HRP readout). It counts as cell-based, S. cerevisiae. To be noted: for HRP activity: yeast cells, Aga2-HA. Here is the method: as §1, §2

A further assay concerns the target T6, Ste2 receptor (Saccharomyces cerevisiae, UniProt D6VTK4).
T6 construct: Yeast cells coexpressing either the endogenous yeast receptor Ste2p; endogenous in cells; host or cells: S. cerevisiae MATa cells (strain CY1892 in the Sag1p-based ELISA)
T6 sequence (D6VTK4 1-431): T5 sequence (D6VTK4 1-431)
Nature of the assay: ELISA-like assay of endogenous Aga2 protein with Sag1p21-352, anti-Xpress antibodies and HRP conjugate. It counts as cell-based, S. cerevisiae. To be noted: yeast cells containing the Ste2 receptor, peroxidase assay. Here is the method:
as §3, §4

Assay [4] addresses T5, Ste2p. Nature of the assay: Western blot of DTT-extracted Aga2-HA. It counts as cell-based, S. cerevisiae. To be noted: increasing concentrations of ligand vs absence. Here is the method:
as §1

The subject of assay [5] is intact MATa cells (strain CY1892). Nature of the assay: Binding of Sag1p21-352 to yeast cell surface (Western blot of SDS extracts). To be noted: cells with or without 100 nM α-factor; 30° C., 30 min. On the set-up: species or system S. cerevisiae. The protocol:
To ensure that this truncation of the Sag1 protein retained full binding activity to α-agglutinin, and more specifically, the Aga2 protein, binding assays were performed. […] The cells (TOD600=1) were pelleted and resuspended in 0.15 ml of the same media supplemented with varying concentrations of Sag1p^21-352. After incubation at 30° C. for 30 min, the cells were washed three times with the same media and incubated in the presence of 2% SDS for 5 min to release Sag1p^21-352 bound to the cell surface. The SDS extracts were subjected to Western blot analysis. The immunoreactive bands corresponding to Sag1p^21-352 were visualized using anti-Xpress antibodies (Invitrogen), as above.

T2 sequence (P48039 whole entry): as the sequence (P48039 whole entry) above
T1 sequence (P48039 whole entry): as the sequence (P48039 whole entry) above

Take `COc1ccc2[nH]cc(CCNC(C)=O)c2c1` [melatonin]: in assay [1], the “expression level of the Aga2 protein” value is recorded as “substantial increase”. The HRP activity in assay [2] ([Ligand] 1 × 10^−6 M) stood at 1.112; in assay [2] ([Ligand] 1.13 × 10^−7 M), 0.829; in assay [2] ([Ligand] 1.95 × 10^−9 M), 0.278; in assay [2] ([Ligand] 3.13 × 10^−8 M), 0.767; in assay [2] ([Ligand] 4.88 × 10^−10 M) it was 0.154; in assay [2] ([Ligand] 5 × 10^−7 M), 1.216. In assay [2] ([Ligand] 7.81 × 10^−9 M), this molecule returned an HRP activity of 0.427. Also, the Induction factor in assay [2] (cell surface Aga2-HA, ML1aR) came to 19; on ML1aR (incubation time 1 hr) it was 2.5; on ML1aR (incubation time 2 hr), 2.6; on ML1aR (incubation time 6 hr), 3.1. On ML1aR (scintillation proximity assay), the “increase in the levels of HA-tagged Aga2p in the culture media” value is listed as “approximately 3 fold”. Also, the “induction of the Aga2 protein” value at ML1a receptor was “dose-dependent response”.

Regarding α-factor, the HRP activity at Ste2p [3] ([Ligand] 1.13 × 10^−7 M) amounted to 2.163; at Ste2p [3] ([Ligand] 2 × 10^−6 M), 2.332; at Ste2p [3] ([Ligand] 3.13 × 10^−8 M), 0.548; on Ste2p [3] ([Ligand] 5 × 10^−7 M) it was 2.498; on Ste2p [3] ([Ligand] 7.81 × 10^−9 M), 0.280. On Ste2p [3] (cell surface Aga2-HA, Ste2p), this molecule returned an Induction factor of 15. The “induction of the Aga2 protein” value on Ste2 receptor is “dose-dependent response”. In addition, on Ste2p [4], the “expression level of the Aga2 protein” value is listed as “substantial increase”.

B1: Sag1p^21-352: N-terminal portion of Sag1p (α-agglutinin, residues 21–352) bearing a polyhistidine tag, Xpress epitope and enterokinase cleavage site (protein)
chain: NINDITFSNLEITPLTANKQPDQGWTATFDFSIADASSIREGDEFTLSMPHVYRIKLLNSSQTATISLADGTEAFKCYVSQQAAYLYENTTFTCTAQNDLSSYNTIDGSITFSLNFSDGGSSYEYELENAKFFKSGPMLVKLGNQMSDVVNFDPAAFTENVFHSGRSTGYGSFESYHLGMYCPNGYFLGGTEKIDYDSSNNNVDLDCSSVQVYSSNDFNDWWFPQSYNDTNADVTCFGSNLWITLDEKLYDGEMLWVNALQSLPANVNTIDHALEFQYTCLDTIANTTYATQFSTTREFIVYQGRNLGTASAKSSFISTTTTDLTSINTSAY
modifications: left off: small tags and cut ends
B1: the “binding to the cell surface of intact MATa cells” value in assay [5] is reported as “bound to the cell surface of intact MATa cells only after these cells were treated with α-factor”.

The values above are taken from patent US7223533B2, “Cell surface proteins and use thereof as indicators of activation of cellular signal transduction pathways” (priority 1999, dated 2007).
